Measured values: patent publication US20100196510A1, “COMPOSITION AND TREATMENT” (priority 2007, published 2010)

Key:
[1] = tested on: rat sensory neurones (dorsal root ganglia); assay: Neurite length of sensory neurones (anti β-Tubulin) in cisplatin-induced toxicity model; format: cell-based; conditions: for Mean neurite Length / neurite length, % Control without cisplatin: 10 ng/ml + cisplatin 3 μg/ml; for effect on cisplatin-induced loss of neurites (in words): 10 ng/ml, cisplatin 3 μg/ml
Protocol: (§1) The low molecular weight glycosaminoglycans are referred to in the examples as 2400 D.
(§2) 1. neurone cell bodies stained with an anti MAP 2 antibody (microtubule associated protein, and 2. neurite network density stained with an anti β-Tubulin antibody
Rat sensory neurones were prepared according to the method described by Hall et al 1997(3). Briefly, a female rat (15 days gestation) was killed by cervical dislocation (Rats Wistar; Janvier, Le Genest-St-Isle, France) and the foetuses removed from the uterus. Their spinal cords with the dorsal root ganglia (DRG) were removed and placed in ice-cold medium of Leibovitz (L15, Fisher 11415-049) containing Penicillin 50 Ul/ml—Streptomycin 50 μg/ml (PS, 1%) and bovine serum albumin (BSA 1%, Sigma A6003). The DRG were recovered and dissociated by trypsinisation for 20 min at 37° C. (trypsin EDTA 10×, 10%, Fisher 15400054) diluted in PBS without calcium and magnesium (Fisher 2007-03). […] The cell suspension was triturated with a 10 ml pipette and centrifuged at 350×g for 10 min at room temperature. The pellet of dissociated cells was then resuspended in defined culture medium.
Viable cells were counted in a Neubauer cytometer using the trypan blue exclusion test (Sigma) and seeded at a density of 30 000 cells/well in 96 well-plates (Nunc). Wells were pre-coated with poly-L-lysine (10 μg/ml, Sigma P2636) in ultra pure sterile water (Merck Eurolab 60759.01).
Cells were allowed to adhere for 2 h and maintained in a humidified incubator at 37° C. in 5% CO2/95% air atmosphere.
(§3) Six wells per condition were carried out to assess neuronal survival. After 48 hours and 72 hours of incubation, the neuronal cells were fixed for 5 minutes in an ethanol/acetic acid solution (95%/5%) at −20° C. and rinsed 3 times in PBS.
(§4) Cell bodies of sensory neurones were labelled by monoclonal anti MAP-2 antibody (Sigma M4403, see photograph 1A) and the neurite of sensory neurones were labelled by monoclonal β-Tubulin antibody (Sigma T8660). These antibodies were diluted at 1:400 in incubation solution (PBS with 5% of FCS and 0.1% of saponin, Sigma S-7900). These antibodies specifically label neurone cell bodies and neurites, respectively.
After 2 hours of incubation, the cells were washed in PBS and incubated with Alexa Fluor 488 goat anti mouse IgG (Molecular Probes A11001) diluted at 1:300 in incubation solution to reveal the MAP-2 and the β-Tubulin antibodies. Cell nuclei were stained with a fluorescent marker (Hoechst staining solution, SIGMA H6024, 1 μg/ml in incubation solution during 1 hour).
(§5) For each condition, 2 pictures per well (12 pictures per condition) were taken using In Cell Analyzer 1000 (Amersham Biosciences) controlled by the computer software In Cell Analyzer 1000 3.2. For the MAP-2 labelling, the magnification was ×10, for the β-Tubulin labelling, the magnification was ×20. For each labelling, all the images were taken in the same conditions.
(§6) Analysis of the number of cell bodies labelled with anti MAP-2 antibodies, and total length of neurites labelled with anti β-Tubulin antibodies, were carried out using In Cell Analyzer 1000 3.2.Workstation software. The results were expressed in percentage compared to the vehicle. The comparisons of each group were carried out using the unpaired T test.

[2] = tested on: rat sensory neurones (dorsal root ganglia); assay: Number of neuronal cell bodies per field (anti MAP-2) in cisplatin-induced toxicity model; format: cell-based; conditions: for number of cell bodies per field, Average / number of cell bodies, % Control without cisplatin: 10 ng/ml + cisplatin 3 μg/ml; for effect on cisplatin-induced loss of cell bodies (in words): 10 ng/ml, cisplatin 3 μg/ml
Protocol: as §1, §2
Briefly, a female rat (15 days gestation) was killed by cervical dislocation (Rats Wistar; Janvier, Le Genest-St-Isle, France) and the foetuses removed from the uterus. […] The DRG were recovered and dissociated by trypsinisation for 20 min at 37° C. […] The cell suspension was triturated with a 10 ml pipette and centrifuged at 350×g for 10 min at room temperature. The pellet of dissociated cells was then resuspended in defined culture medium.
Viable cells were counted in a Neubauer cytometer using the trypan blue exclusion test (Sigma) and seeded at a density of 30 000 cells/well in 96 well-plates (Nunc).
as §3, §4
Cell nuclei were stained with a fluorescent marker (Hoechst staining solution, SIGMA H6024, 1 μg/ml in incubation solution during 1 hour).
as §5, §6

NGF: Nerve Growth Factor, a specific growth factor for sensory neurons; reference compound
Mean neurite Length ([1]; 48 hours): 6362.44 μm | neurite length, % Control without cisplatin ([1]; 48 hours): 117% | Mean neurite Length ([1]; 72 hours): 6000.30 μm | neurite length, % Control without cisplatin ([1]; 72 hours): 113% | effect on cisplatin-induced loss of neurites (in words) ([1]; 48 hours): prevented cisplatin-induced loss of neurites | effect on cisplatin-induced loss of neurites (in words) ([1]; 72 hours): prevented cisplatin-induced loss of neurites | number of cell bodies per field, Average ([2]; 48 hours): 58.33 | number of cell bodies, % Control without cisplatin ([2]; 48 hours): 96% | number of cell bodies per field, Average ([2]; 72 hours): 54.92 | number of cell bodies, % Control without cisplatin ([2]; 72 hours): 102% | effect on cisplatin-induced loss of cell bodies (in words) ([2]; 48 hours): almost completely prevented cisplatin-induced loss of cell bodies | effect on cisplatin-induced loss of cell bodies (in words) ([2]; 72 hours section (text prints 48 hours)): completely prevented cisplatin-induced loss of cell bodies
